Source: US20140106387A1, “METHOD FOR CONTROLLING NAD(P)/NAD(P)H RATIO BY OXIDOREDUCTASE” (MD BIOALPHA CO., LTD., priority 2006, published 2014)

What was measured:
[1] = test system: AMPKα, ACC; test: AMPKα and ACC phosphorylation in tissues of DIO mice (Western blot); format: in vivo, mouse
Method: HepG2 (human hepatoma cell line), HEK293 (Human embryonic kidney cell line), and C2C12/L6 myoblasts were purchased from American Type Culture Collection (ATCC, Manassas, Va., USA). LKB−/− MEFs were purchased from R.A. DePinho. Rat ventricular myocytes were enzymatically isolated from the heart of adult […] by a known method. Phosphorylation of AMPK (Thr172) and ACC (Ser79) was measured by Western blot analysis using Cell Signaling Technologies and pan- and phospho-specific antibodies (Upstate Biotechnology, Inc., Lake Placid, N.Y.).
Using various proteins extracted from liver, gonadal fat (WAT), EDL and soleus muscle of DIO mice treated with a vehicle or βL for 2 days, T172 phosphorylation of AMPKα and S79 phosphorylation of ACC in each tissue were measured by Western blot analysis.
FIG. 26 is a photograph showing effects of an NQO1 activator on AMPK & ACC phosphorylation in C57BL/6 mice. In order to investigate anti-obesity effects of an NQO1 activator, the NQO1 activator was administered daily to DIO mice at a dose of 50 mg/kg via an oral route, and effects of the NQO1 activator on phosphorylation of AMPK and ACC, which play an important role in energy metabolism and lipogenesis in the liver and gonadal adipose tissues, were examined. […] Phosphorylated AMPK is believed to activate metabolism associated with energy. Whereas, it is believed that ACC, which is affected by activation of AMPK, is phosphorylated and lipogenic activity thereof is then inhibited, which will then exert some effects on lipid metabolism including inhibition of obesity.

[2] = test system: eNOS; test: phosphorylation of endothelial nitric oxide synthase (eNOS) in HUVEC; format: cell-based, human; conditions: 10 μM
Method: It is well-known that activation of AMPK activates NRF-1 and facilitates mitochondrial biogenesis. In addition, NO/cGMP activates PGC-1α and NRF-1 to facilitate mitochondrial biogenesis. In order to ascertain whether an NQO1 activator, which activates AMPK, is involved in production of nitric oxide (NO), a degree of phosphorylation, leading to an increase in activity of endothelial nitric oxide synthase (eNOS), was determined. […] The culture medium was replaced with a serum free EBM2 medium, and cells were treated with pyrano-1,2-naphthoquinone (10 μM) for a predetermined time. Phosphorylated eNOS was observed using Anti-[…] eNOS.

[3] = AMP/ATP, NAD+/NADH and NADP+/NADPH ratios in liver after intravenous administration; format: in vivo, mouse
Method: Acid extraction was used for analysis of an AOPN concentration in the cells and liver tissues. 400 μl of 6% HClO4 was added to the cells cultured in a 100 mm dish, whereas a two-fold volume of 6% HClO4 was added to the liver tissues which were then immediately homogenized. Each mixture was centrifuged at 14,000 g and 4° C. for 10 min, and the resulting supernatants were neutralized by addition of 1 M borate buffer (pH 11) containing 4 mM EDTA in an amount of 75%. Samples were aliquoted and stored at a temperature of −80° C.
Analysis of an RPN concentration in liver tissues was carried out using alkali extraction. An equal volume of ice-cold 0.5 M KOH was added to the liver tissues which were then immediately homogenized. Thereafter, a two-fold volume of ice-cold distilled water was added and mixed with the liver tissues for 2 min, and the mixture was centrifuged using an Amicon ultrafiltration membrane (MILLIPORE) at 14,000 g and 4° C. for 40 min. The thus-obtained filtrate was neutralized by addition of 1 M KH2PO4 (pH 6.5) in an amount of 10%. Samples were aliquoted and stored at a temperature of −70° C. Concentration determination was made within 72 hours.
A mobile phase was 100 mM ammonium acetate:MeOH (98:2, v/v), and preparations were filtered through a 0.22-μm Millipore filter. A flow rate was set to 0.8 mL/min and detection was made at 254 nm. Separation was carried out using a ZORBAX Bonus-RP C18 column (3.5 μm, 4.6×150 mm I.D., […]). The samples were maintained at 4° C. in a thermostatted autosampler until they were loaded onto the column.
In order to assay ATP, ADP, AMP, NAD and NADP levels, 450 μl of 5 mM ammonium acetate was added to 50 μl of a liver sample extracted with perchloric acid (HClO4) which was then diluted ten times. Diluted samples were vortexed and mixed for 1 min, and the mixture was filtered through a 0.2 μm nylon syringe filter (Whatman, Brentford, UK). Then, 5 μl of each aliquot was injected into a HPLC system. Each standard solution (50 μl) for these analytes was added to 50 μl of an extraction solution containing 2-chloroadenosine (internal standard) and 400 μl of 5 mM ammonium acetate, and mixed and filtered in the same manner as in the above samples. For analysis of NADH and NADPH, each 100 μl of liver samples extracted with a potassium hydroxide (KOH) solution was diluted twice with an equal amount of a 5 mM ammonium acetate (KOH solution for standards). HPLC system consists of an Agilent 1100 series vacuum degasser, a binary pump, an autosampler, a thermostatted column compartment, and a DAD detector (Agilent Technologies, Palo Alto, Calif.). Adenine and nucleotide analogues were separated by Waters XTena MS C18 2.1×150 mm, 3.5 μm column (Waters, Milford, Mass., USA) chromatography using a gradient method. A mobile phase for adenine and nucleotide analogues was 5 mM ammonium acetate (A) and methanol (B). NAD^+-related compounds were separated by linear gradient elution of initial 98% (A) to final 70% (B) at a time point of 8 min. The mobile phase was developed at 70% (B) for 7 min. Finally, the mobile phase was returned to 98% (A) at a point of 16 min, and reequilibrated to 98% (A) for 12 min. A flow rate was set to 0.2 mL/min throughout the entire period of time. An injection volume was 5 μl. Electrospray-ionization mass spectrometry (ESI-MS) was carried out in a positive ion mode using MDS Sciex API 4000 Triple Quadrupole Mass Spectrometer (Applied Biosystems, Ontario, Calif.).
5 mg/kg of pyrano-1,2-naphthoquinone was intravenously administered to a tail vein of DIO mice and changes in an NADH amount and an NAD^+/NADH ratio of liver tissues were examined for 6 hours.

[4] = 5 mg/kg intravenous, liver of DIO mice

Structure (SMILES): CC1(C)CCC2=C(O1)c1ccccc1C(=O)C2=O [βL, 2,2-Dimethyl-3,4-dihydro-2H-benzo[h]chromene-5,6-dione]
- phosphorylation of AMPK and ACC in the gonadal and liver tissues ([1]; C57BL/6 DIO mice, 50 mg/kg daily, oral): has an effect on phosphorylation of AMPK and ACC
- S79 phosphorylation of ACC and T172 phosphorylation of AMPKα ([1]; gonadal fat of DIO mice treated for 2 days): no such effects
- S79 phosphorylation of ACC and T172 phosphorylation of AMPKα ([1]; liver and muscle (EDL, Soleus) of DIO mice treated for 2 days): increased
- time of maximum increase of phosphorylation of eNOS [2]: 30 min
- phosphorylation of eNOS 2 hours later ([2]; 2 hours): not observed
- numerical value of NADP+ ([3]; 5 mg/kg intravenous, liver): no significant change
- time point of maximum NAD+/NADPH ratio ([3]; 5 mg/kg intravenous, liver): 120 min
- time point of highest AMP/ATP ratio [3, 4]: 30 min
- time point of maximum NAD+ amount and NAD+/NADH ratio [3, 4]: 120 min
- time point of maximum increase of AMP concentration [3, 4]: 30 min
- time point of recovery of AMP concentration to a normal level [3, 4]: 120 min
- time point of recovery of AMP/ATP ratio to the initial state [3, 4]: 360 min
- changes in the AMP/ATP and NAD+/NADP ratios ([3]; DIO mice): significant changes
- AMP/ATP and NAD+/NADH ratios in the liver compared to control group ([3]; intravenous (IV) injection): higher
